≈ marks a conversion by molar mass, not a printed value. Where two headings read alike, the source gives them in different places. Non-standard residues stand in square brackets, D forms with d. Residues, ends and D or L forms follow the SMILES beside them. *: point of attachment. Guan = N-terminal guanidation, N=C(N)*; Hyp = O=C(O)[C@@H]1C[C@@H](O)CN1; dOrn = NCCC[C@@H](N)C(=O)O; code O = not defined here; Orn = NCCC[C@H](N)C(=O)O; For = O=C*
Experiments:
E. coli BL21 A1 = format: cell-based, Escherichia coli
Method: (§1) The minimum inhibitory concentrations (MIC) of the antimicrobial peptides and peptide derivatives were determined in microdilution assays. These used a continuous peptide dilution in sterile flat-bottomed 96-well microtiter plates (polystyrene, Greiner Bio-One GmbH, Frickenhausen, Germany) and a total volume of 100 μL per well. The aqueous peptide or peptidomimetic solutions were diluted with 1% TSB water, to obtain a final concentration of 256 μg/mL. 50 μL of the peptide or peptidomimetic solution was pipetted into the first well of each series and stirred. From this solution, 50 μL was transferred to the second well, stirred and again 50 μL was transferred to the next well, and so on. A double dilution series is obtained, beginning at 256 μg/mL in the first well to 125 ng/mL in the twelfth well. The bacteria, e.g. E. coli BL21 A1, were cultured overnight at 37° C. in nutrient broth (NB, Carl Roth GmbH+Co. KG, Karlsruhe, Germany). 50 μL of a 5×10^6 bacteria/mL suspension in 1% TSB was added to each well of the microtiter plate and thus a final concentration of the peptides or peptidomimetics from 128 μg/mL (well 1) to 62.5 ng/mL (well 12) was established in each series. The plates were incubated at 37° C. for 20 h and then the absorption was measured at 595 nm with a TECAN microtiter plate spectrophotometer (Tecan Trading AG, Mannedorf, Switzerland). The MIC values of all peptides and peptidomimetics were determined in triplicate. Sterile water was used as negative control. The MIC value represents the lowest peptide concentration at which no bacterial growth is observed after an incubation time of 20 h at 37° C.
(§2) The MIC values of the peptides and peptide derivatives against Escherichia coli BL21 A1 and Micrococcus luteus ATCC 10240 are given in Table 7.

M. luteus 10240 = assay: Growth inhibition assay (microdilution MIC); format: cell-based, Micrococcus luteus
Method: as §1, §2

Compound	MIC E. coli BL21 A1 (E. coli BL21 A1; BL21, 20 h) [µg/mL]	MIC M. luteus 10240 (M. luteus 10240; 10240, 20 h) [µg/mL]	further results
84 (Guan-VDKPPYLPRPRPPRRIYNR-NH2) [compound 84]			MIC E. coli BL21 A1 (E. coli BL21 A1; 1% TSB, 20 h at 37° C.): 32 µg/mL
85 (Guan-VDKPPYLPRPRPPR[code O]IYN[code O]-NH2; reading uncertain; also: printed as Guan-VDKPPYLPRPRPPROIYNO-NH2) [compound 85]			MIC E. coli BL21 A1 (E. coli BL21 A1; 1% TSB, 20 h at 37° C.): 64 µg/mL
95 ({RQIKIWFQNRRMKWKKC-Ac}-GNNRPVYIPQPRPPHPRL-OH; not fully specified (bridges); printed as RQIKIWFQNRRMKWKKC-(CH2CO-GNNRPVYIPQPRPPHPRL-OH)-; also: N-terminal CH2CO attached to Cys side chain of RQIKIWFQNRRMKWKKC-OH) [compound 95]			MIC M. luteus 10240 (M. luteus 10240; 1% TSB, 20 h at 37° C.): 8 µg/mL; MIC E. coli BL21 A1 (E. coli BL21 A1; 1% TSB, 20 h at 37° C.): 8 µg/mL
CC[C@H](C)[C@H](NC(=O)[C@H](CCCN)NC(=O)[C@H](CCCNC(=N)N)NC(=O)[C@@H]1CCCN1C(=O)[C@@H]1CCCN1C(=O)[C@H](CCCNC(=N)N)NC(=O)[C@@H]1CCCN1C(=O)[C@H](CCCNC(=N)N)NC(=O)[C@@H]1CCCN1C(=O)[C@H](CC(C)C)NC(=O)[C@H](Cc1ccc(O)cc1)NC(=O)[C@@H]1CCCN1C(=O)[C@@H]1CCCN1C(=O)[C@H](CCCCN)NC(=O)[C@H](CC(=O)O)NC(=O)[C@@H](N)C(C)C)C(=O)N[C@@H](Cc1ccc(O)cc1)C(=O)N[C@@H](CCC(N)=O)C(=O)N[C@@H](CCCN)C(N)=O [SEQ ID NO. 74, VDKPPYLPRPRPPROIYQO-NH2] (H-VDKPPYLPRPRPPR[Orn]IYQ[Orn]-NH2)	4 (≈ 1.72 µM)		
CC[C@H](C)[C@H](NC(=O)[C@H](CCCNC(=N)N)NC(=O)[C@H](CCCNC(=N)N)NC(=O)[C@@H]1CCCN1C(=O)[C@@H]1CCCN1C(=O)[C@H](CCCNC(=N)N)NC(=O)[C@@H]1CCCN1C(=O)[C@H](CCCNC(=N)N)NC(=O)[C@@H]1CCCN1C(=O)[C@H](CC(C)C)NC(=O)[C@H](Cc1ccc(O)cc1)NC(=O)[C@@H]1CCCN1C(=O)[C@@H]1CCCN1C(=O)[C@H](CCCCN)NC(=O)[C@H](CC(=O)O)NC(=O)[C@@H](NC=O)C(C)C)C(=O)N[C@@H](Cc1ccc(O)cc1)C(=O)N[C@@H](CC(N)=O)C(=O)N[C@@H](CCCNC(=N)N)C(=O)O [SEQ ID NO. 81] (For-VDKPPYLPRPRPPRRIYNR-OH)	128 (≈ 52.9 µM)	32 (≈ 13.2 µM)	
CC[C@@H](C)[C@@H](NC(=O)[C@@H](CCCNC(=N)N)NC(=O)[C@@H](CCCNC(=N)N)NC(=O)[C@H]1CCCN1C(=O)[C@H]1CCCN1C(=O)[C@@H](CCCNC(=N)N)NC(=O)[C@H]1CCCN1C(=O)[C@@H](CCCNC(=N)N)NC(=O)[C@H]1CCCN1C(=O)[C@@H](CC(C)C)NC(=O)[C@@H](Cc1ccc(O)cc1)NC(=O)[C@H]1CCCN1C(=O)[C@H]1CCCN1C(=O)[C@@H](CCCCN)NC(=O)[C@@H](CC(=O)O)NC(=O)[C@H](N)C(C)C)C(=O)N[C@H](Cc1ccc(O)cc1)C(=O)N[C@H](CC(N)=O)C(=O)N[C@H](CCCNC(=N)N)C(N)=O [SEQ ID NO. 115, vdkppylprprpprriynr-NH2] (H-[dV][dD][dK][dP][dP][dY][dL][dP][dR][dP][dR][dP][dP][dR][dR][dI][dY][dN][dR]-NH2)		64 (≈ 26.8 µM)	
CC[C@@H](C)[C@@H](NC(=O)[C@@H](CCCN)NC(=O)[C@@H](CCCNC(=N)N)NC(=O)[C@H]1CCCN1C(=O)[C@H]1CCCN1C(=O)[C@@H](CCCNC(=N)N)NC(=O)[C@H]1CCCN1C(=O)[C@@H](CCCNC(=N)N)NC(=O)[C@H]1CCCN1C(=O)[C@@H](CC(C)C)NC(=O)[C@@H](Cc1ccc(O)cc1)NC(=O)[C@H]1CCCN1C(=O)[C@H]1CCCN1C(=O)[C@@H](CCCCN)NC(=O)[C@@H](CC(=O)O)NC(=O)[C@H](N)C(C)C)C(=O)N[C@H](Cc1ccc(O)cc1)C(=O)N[C@H](CC(N)=O)C(=O)N[C@H](CCCN)C(N)=O [SEQ ID NO. 116, vdkppylprprpproiyno-NH2] (H-[dV][dD][dK][dP][dP][dY][dL][dP][dR][dP][dR][dP][dP][dR][dOrn][dI][dY][dN][dOrn]-NH2)		128 (≈ 55.5 µM)	
CC[C@@H](C)[C@@H](NC(=O)[C@@H](Cc1ccc(O)cc1)NC(=O)[C@@H](CC(N)=O)NC(=O)[C@H](N)CCCNC(=N)N)C(=O)N[C@H](CCCNC(=N)N)C(=O)N[C@H](CCCNC(=N)N)C(=O)N1CCC[C@@H]1C(=O)N1CCC[C@@H]1C(=O)N[C@H](CCCNC(=N)N)C(=O)N1CCC[C@@H]1C(=O)N[C@H](CCCNC(=N)N)C(=O)N1CCC[C@@H]1C(=O)N[C@H](CC(C)C)C(=O)N[C@H](Cc1ccc(O)cc1)C(=O)N1CCC[C@@H]1C(=O)N1CCC[C@@H]1C(=O)N[C@H](CCCCN)C(=O)N[C@H](CC(=O)O)C(=O)N[C@@H](C(N)=O)C(C)C [SEQ ID NO. 117, rnyirrpprprplyppkdv-NH2] (H-[dR][dN][dY][dI][dR][dR][dP][dP][dR][dP][dR][dP][dL][dY][dP][dP][dK][dD][dV]-NH2)	64 to 256		
CC[C@@H](C)[C@@H](NC(=O)[C@@H](Cc1ccc(O)cc1)NC(=O)[C@@H](CC(N)=O)NC(=O)[C@H](N)CCCN)C(=O)N[C@H](CCCN)C(=O)N[C@H](CCCNC(=N)N)C(=O)N1CCC[C@@H]1C(=O)N1CCC[C@@H]1C(=O)N[C@H](CCCNC(=N)N)C(=O)N1CCC[C@@H]1C(=O)N[C@H](CCCNC(=N)N)C(=O)N1CCC[C@@H]1C(=O)N[C@H](CC(C)C)C(=O)N[C@H](Cc1ccc(O)cc1)C(=O)N1CCC[C@@H]1C(=O)N1CCC[C@@H]1C(=O)N[C@H](CCCCN)C(=O)N[C@H](CC(=O)O)C(=O)N[C@@H](C(N)=O)C(C)C [SEQ ID NO. 118, onyiorpprprplyppkdv-NH2] (H-[dOrn][dN][dY][dI][dOrn][dR][dP][dP][dR][dP][dR][dP][dL][dY][dP][dP][dK][dD][dV]-NH2)	64 to 256		
CC[C@H](C)[C@H](NC(=O)[C@H](CCCNC(=N)N)NC(=O)[C@H](CCCNC(=N)N)NC(=O)[C@@H]1CCCN1C(=O)[C@@H]1CCCN1C(=O)[C@@H]1C[C@@H](O)CN1C(=O)[C@@H]1CCCN1C(=O)[C@H](CCCNC(=N)N)NC(=O)[C@@H]1CCCN1C(=O)[C@H](CC(C)C)NC(=O)[C@H](Cc1ccc(O)cc1)NC(=O)[C@@H]1CCCN1C(=O)[C@@H]1CCCN1C(=O)[C@H](CCCCN)NC(=O)[C@H](CC(=O)O)NC(=O)[C@@H](N)C(C)C)C(=O)N[C@@H](Cc1ccc(O)cc1)C(=O)N[C@@H](CC(N)=O)C(=O)N[C@@H](CCCNC(=N)N)C(=O)O [compound 3] (H-VDKPPYLPRP[Hyp]PPRRIYNR-OH)	128 (≈ 54.5 µM)	32 (≈ 13.6 µM)	
CC[C@H](C)[C@H](NC(=O)[C@H](CCCN)NC(=O)[C@H](CCCNC(=N)N)NC(=O)[C@@H]1CCCN1C(=O)[C@@H]1CCCN1C(=O)[C@H](CCCNC(=N)N)NC(=O)[C@@H]1CCCN1C(=O)[C@H](CCCNC(=N)N)NC(=O)[C@@H]1CCCN1C(=O)[C@H](CC(C)C)NC(=O)[C@H](Cc1ccc(O)cc1)NC(=O)[C@@H]1CCCN1C(=O)[C@@H]1CCCN1C(=O)[C@H](CCCCN)NC(=O)[C@H](CC(=O)O)NC(=O)[C@@H](N)C(C)C)C(=O)N[C@@H](Cc1ccc(O)cc1)C(=O)N[C@@H](CCC(N)=O)C(=O)N[C@@H](CCCN)C(N)=O [compound 74] (H-VDKPPYLPRPRPPR[Orn]IYQ[Orn]-NH2)		8 (≈ 3.45 µM)	
CC[C@H](C)[C@H](NC(=O)[C@@H](CCCNC(=N)N)NC(=O)[C@H](CCCNC(=N)N)NC(=O)[C@@H]1CCCN1C(=O)[C@@H]1CCCN1C(=O)[C@H](CCCNC(=N)N)NC(=O)[C@@H]1CCCN1C(=O)[C@H](CCCNC(=N)N)NC(=O)[C@@H]1CCCN1C(=O)[C@H](CC(C)C)NC(=O)[C@H](Cc1ccc(O)cc1)NC(=O)[C@@H]1CCCN1C(=O)[C@@H]1CCCN1C(=O)[C@H](CCCCN)NC(=O)[C@H](CC(=O)O)NC(=O)[C@@H](N)C(C)C)C(=O)N[C@@H](Cc1ccc(O)cc1)C(=O)N[C@@H](CC(N)=O)C(=O)N[C@H](CCCNC(=N)N)C(N)=O [compound 112] (H-VDKPPYLPRPRPPR[dR]IYN[dR]-NH2)	4 (≈ 1.67 µM)		
H-GNNRPVYIPQPRPPHPRL-OH [SEQ ID NO. 87, reference compound]			MIC M. luteus 10240 (M. luteus 10240; 1% TSB, 20 h at 37° C.): 64 µg/mL
H-VDKPPYLPRPPPPRRIYN-NH2 [compound 1]	128		
H-VDKPPYLPRPRPPRRIYN-OH [compound 28]		128	
H-VDKPPYLPRPRPPRRIYNH-NH2 [SEQ ID NO. 53]	16		times lower activity / higher MIC value than oncocin against E. coli (E. coli BL21 A1): 4 times
H-VDKPPYLPRPRPPRRIYNH-NH2 [compound 53]		16	

Reference: US8686113B2 (priority 2009, dated 2014)
